Experimental data reported in US20090030037A1, “Sustained Release Formulation and Dosing Schedules of Leukotriene Synthesis Inhibitor for Human Therapy” (deCODE Genetics ehf., priority 2005, published 2009).
Several values for one entry are separate records, joined by “and”; a condition that tells them apart may be missing. Equal values may be shown once.

Key:
Amyloid A = experiment: Study DG-031-201: amyloid A in serum; format: in vivo, human; details: difference visit 2 to 5; 500 and 750 mg/day vs placebo
Method: Genet. 2004). Apart from FLAP, allele A of the SNP SG12S25 in the LTA4 hydrolase gene, another gene in the LT pathway, is also associated with MI, as described in PCT application no. PCT/US03/32556 and PCT/US04/30582 incorporated by reference.
Patients who met the study eligibility criteria were enrolled and randomized into 3 different dose-level groups: (1) 64 patients on 250 mg/day therapy with DG-031 (250 mg q.d.), vs placebo; (2) 64 patients on 500 mg/day therapy with DG-031 (250 mg b.i.d.) vs placebo; and (3) 63 patients on 750 mg/day therapy with DG-031 (250 mg t.i.d.) vs placebo. […] All patients received 3 tablets per day. Treatment periods, 4 weeks in duration each, were separated by a 2-week washout period. The placebo tablets were identical in shape, color, form and taste to the active tablets except that they contained no active drug ingredients. Treatment with DG-031 or placebo was in addition to the subject's standard care, including all medications and treatment plan as prescribed by the subject's cardiologist prior to enrolment. […]
All data were analyzed according to a pre-established statistical analysis plan (SAP) and by intention-to-treat (ITT). […] The difference between DG-031 and placebo treatment was the primary outcome, assessed separately for each of the biomarkers. […]

MPO = experiment: Study DG-031-204: MPO in ionomycin-stimulated whole blood; format: in vivo, human; details: for Stimulated MPO from whole blood (% change from baseline, whole blood, WBC corrected, 60 minute), mean response: after 4 weeks of DG-031 administration
Method: An additional single site, open label study was carried out to obtain biomarker and safety data on additional DG-031 doses (i.e., 1000 mg and 1500 mg). This study examined the safety, tolerability and dose-related effects of DG-031 on inflammatory biomarkers including: LTB4, hsCRP, and MPO. A total of 119 patients with a prior history of CAD and MI were randomized to receive either 1000 mg DG-031 (500 mg BID) or 1500 mg DG-031 (500 mg TID) daily for 4-6 weeks. Treatment with DG-031 in addition to the subject's standard care, medication, and treatment, was prescribed by the patient's cardiologist. A majority of the subjects received statin therapy before, during and after the study. Follow-up assessments were performed 2 weeks after the end of study drug administration.
The biomarkers were analyzed as described in Example 1. Statistical analysis of the data was carried out using a one-sample t-test on change from baseline with a two-sided nominal significance level of 0.050. Biomarker concentrations were log-transformed and a simple last observation carried forward (LOCF) scheme was used to impute missing observations.
Plasma MPO concentration was measured weekly. MPO measurements in ionomycin-stimulated whole blood were also measured in a subset of patients at 4 weeks.

[1] = test system: MPO release, human whole blood; experiment: In vitro MPO release in human whole blood after ionomycin stimulation; format: cell-based
Method: Neutrophils and other cells in human whole blood respond in vitro to activation by a calcium ionophore (e.g., ionomycin), with an increase in LTB4 production and with coupled release of MPO stimulated in part by LTB4 production in the assay. The effect of DG-031 on the capacity for production of LTB4 in vitro after ionomycin stimulation was evaluated at concentrations ranging from 0.1 μM up to 240 μM.
Blood samples collected from the clinical study described in Example 2 were evaluated assuming that the ex vivo response profile in clinical samples parallels the in vitro response over the entire concentration range, 250 mg TID dosing which maintains concentrations above 2-3 μg/ml (˜7 μM) should maintain a 30% or greater reduction of capacity for LTB4 production at all times. Peak concentrations of DG-031 with 250 mg TID dosing were about 10 μg/ml (28 μM) and should be associated with about 65% reduction of capacity for LTB4 production. The typical patient's pharmacodynamic response was expected to fluctuate between 30% and 65% reduction of capacity for LTB4 production over the course of a dosing interval.

CRP = experiment: Study DG-031-203: serum CRP; format: in vivo, human
Method: The study also collected information on the dose-related effect of DG-031 on capacity for LTB4 production (ex vivo), plasma MPO, and serum-CRP. […] The pattern observed supported a concentration dependent pharmacologic effect of DG-031 on capacity for LTB4 production measured ex vivo. The effects on LTB4 production amounted to a 30% (p=0.016) and 25% (p=0.094) reduction with the 375 mg BID and 250 mg TID doses, respectively.

**Q.** How did the “Carry-over effect, Amyloid A” value (Amyloid A) turn out when `O=C(O)[C@@H](c1ccc(OCc2ccc3ccccc3n2)cc1)C1CCCC1` [DG-031, (R)-(+)-alpha-cyclopentyl-4-(2-quinolinylmethoxy)-Benzeneacetic acid] was run?
**A.** −0.14

**Q.** And the “Stimulated whole blood MPO concentrations” value (MPO; 500 mg BID or TID, 4 weeks)?
**A.** decreased

**Q.** What about the “Stimulated MPO from whole blood (% change from baseline, whole blood, WBC corrected, 60 minute), mean response” value (MPO; 1000 mg (500 mg BID)) of the same compound?
**A.** −19%

**Q.** What about the “Stimulated MPO from whole blood (% change from baseline, whole blood, WBC corrected, 60 minute), mean response” value (MPO; 1500 mg (500 mg TID)) of the same compound?
**A.** −29%

**Q.** And the “Concentration at which MPO release is maximally inhibited in vitro” value [1]?
**A.** about 6 μM and ~2 μg/ml

**Q.** What about the “Reduction in CRP levels, high CRP group” value (CRP; 250 mg TID, CRP above median 1.4 mg/L at entry) of the same compound?
**A.** 48%

**Q.** What about the “CRP, change” value (CRP; 250 mg TID, Study 203, 1 wk) of the same compound?
**A.** 37% (St. 203)

**Q.** What about the “Reduction of serum CRP” value (CRP; 250 mg TID, after one week, follow-up study (203), all subjects) of the same compound?
**A.** 38%

**Q.** What about the “Reduction in CRP levels, high CRP group” value (CRP; 375 mg BID, CRP above median at entry, p=0.16) of the same compound?
**A.** 31%

**Q.** What about the “CRP, change” value (CRP; 375 mg BID, Study 203) of the same compound?
**A.** No effect

**Q.** And the “Change in serum CRP” value (CRP; 375 mg BID, one week, all subjects)?
**A.** −1%

**Q.** What about the “CRP, change” value (CRP; 375 mg QD, Study 203, 1 wk) of the same compound?
**A.** −28%
